These results are taken from PubChem BioAssay AID1996.

Values after ≈ are worked out from the molar mass of the structure shown.

For this data set the following is noted: buffer; pH 7.4; 200.0 µM.
As to `Cc1cc(NCCOCCO)n2c(nc3ccccc32)c1C#N`, the solubility (kinetic) – broadly, solubility judged after dilution from a stock solution rather than from solid – was over 46.6 µg/mL. In the case of `COc1cccc(OC)c1OCCNCC1COc2ccccc2O1.Cl` (stereo not drawn), the kinetic solubility is over 57.3 µg/mL. For `Cc1ccccc1NCCC(=O)Nc1ccc(F)cc1` the value was over 40.8 µg/mL. The molecule `COc1cc(C(=O)NC2CCCc3ccccc32)cc(OC)c1C` (stereo not drawn) yielded a kinetic solubility of under 0.7 µg/mL. In turn, `COc1ccc2c(c1)CC/C(=C/c1ccccn1)C2=O` came in with a solubility (kinetic) of 38.5 µg/mL (≈ 145 µM). `CC(=O)NC(CC(=O)Nc1ccc(S(=O)(=O)N2CCOCC2)cc1)c1ccccc1` (stereo not drawn): the solubility (kinetic) is over 64.7 µg/mL. In the case of `O=C(Nc1ccc2c(c1)OCCO2)c1ccc(Cl)c(Cl)c1`, the solubility (kinetic) was under 0.7 µg/mL. The molecule `Cc1cc(F)ccc1NC(=O)c1cnccn1` showed a solubility (kinetic) of 29.7 µg/mL (≈ 128 µM). `CC(C)(C)NC(=O)CCCCCCCC(=O)NC(C)(C)C` displayed a solubility (kinetic) of over 44.8 µg/mL.

Molecule `CC(C)N(C(=O)COC(=O)c1cccnc1Cl)c1ccccc1` had a kinetic solubility of over 49.9 µg/mL. The molecule `O=C(CNc1ccccc1Cl)c1ccc(Br)cc1` registered a kinetic solubility of under 0.7 µg/mL. Take `CC1CCN(CC(=O)N2c3ccccc3CC2C)CC1.Cl` (stereo not drawn): the solubility (kinetic) is over 46.3 µg/mL.

For `COc1ccc(Cl)cc1S(=O)(=O)Nc1noc2ccccc12`, the solubility (kinetic) came out at 47 µg/mL (≈ 139 µM). Consider `O=C(Nc1ccccc1O)c1csc2c1CCCC2`, for which the solubility (kinetic) came out at 2.2 µg/mL (≈ 8.05 µM).

Regarding `CC(=O)C(Cc1ccccc1)NC(=O)CN1CCc2ccccc2C1` (stereo not drawn), the kinetic solubility was over 50.5 µg/mL. For the molecule `CCOC(=O)c1c(O)cc(C)cc1Nc1ccccc1`, the kinetic solubility was under 0.6 µg/mL. For the molecule `Cc1cc(C)cc(C(=O)N(C)C2CCCN(Cc3ccccc3F)C2)c1` (stereo not drawn), the solubility (kinetic) is over 53.2 µg/mL. Molecule `CCOc1ccc(NC(=O)Cc2c(C(=O)O)n(C)c3ccccc23)cc1` gave a kinetic solubility of over 52.9 µg/mL. In turn, `Cl.NCCc1cnc[nH]1` displayed a kinetic solubility of over 27.6 µg/mL. For `O=C(COc1ccc2ccc(=O)oc2c1)N1CCc2ccccc21` the value was under 0.7 µg/mL; for `CCc1cc(=S)n2c([nH]c3ccccc32)c1C#N`, 32.6 µg/mL (≈ 129 µM); for `COc1ccc(C(=O)NC2CCCCCC2)cc1S(=O)(=O)N1CCCC1`, 6 µg/mL (≈ 15.8 µM).

`Cc1c(Cl)cccc1-n1cnc(=O)c2ccccc21` yielded a kinetic solubility of over 40.6 µg/mL. For the molecule `Oc1ccc(Cl)cc1C=Nc1ccc(Br)cc1`, the solubility (kinetic) was 21.4 µg/mL (≈ 68.9 µM). For `COc1cc([N+](=O)[O-])ccc1NC(=O)COC(=O)C=C(C)C` the value was 3.6 µg/mL (≈ 11.7 µM). The same measure for `COc1ccccc1C1CCN(Cc2ccccc2Cl)CC1`: 3.6 µg/mL (≈ 11.4 µM); for `CCN(c1cccc2ccccc12)S(=O)(=O)c1cccs1`: 12.5 µg/mL (≈ 39.4 µM). In the case of `CC(=O)Nc1ccc(S(=O)(=O)NC(C(=O)O)C(C)O)cc1` (stereo not drawn), the kinetic solubility is over 47.4 µg/mL.

`COc1ccccc1CNC(=O)c1ccc(C)s1` came in with a solubility (kinetic) of over 39.2 µg/mL. Consider `O=C(c1c(F)cccc1F)N1CCCc2ccccc21`, for which the kinetic solubility was over 41 µg/mL. `Cc1ccc(OCCCCCCN2CCNCC2)cc1.O=C(O)C(=O)O`: the solubility (kinetic) is over 55 µg/mL. For the molecule `O=c1[nH]c2cc(S(=O)(=O)CCO)ccc2o1`, the kinetic solubility was 32.4 µg/mL (≈ 133 µM). Regarding `O=C(Nc1ccccc1)/C(=C\c1ccccc1)NC(=O)c1ccco1`, the kinetic solubility stood at 0.7 µg/mL (≈ 2.11 µM).

Molecule `Cc1ccc(C(=O)NC(C)CCc2ccccc2)cc1S(=O)(=O)N1CCOCC1` (stereo not drawn) yielded a kinetic solubility of 5.6 µg/mL (≈ 13.4 µM). Compared with the last molecule, the solubility kinetic is about 8-fold higher.

`O=C1CCNc2c(Cl)cccc21` registered a solubility (kinetic) of 20.9 µg/mL (≈ 115 µM). In turn, `COc1ccc(CC(=O)NCCCc2ccccc2)cc1OC` showed a solubility (kinetic) of over 47 µg/mL.

As to `O=C(/C=C/c1ccco1)Nc1ccc2nc3n(c(=O)c2c1)CCCC3`, the kinetic solubility was found to be 3.7 µg/mL (≈ 11 µM). For the molecule `NC(=S)Nc1ccc(F)cc1F`, the solubility (kinetic) was over 28.2 µg/mL. `COCn1cnc(-c2ccccc2)c1-c1ccccc1` had a kinetic solubility of 32.5 µg/mL (≈ 123 µM). The same measure for `NS(=O)(=O)c1ccc(NC(=O)c2ccc3c(c2)OCO3)cc1`: under 0.3 µg/mL; for `Cc1ccc(/C=N/NC(=O)c2ccc3nc[nH]c3c2)s1`: over 42.7 µg/mL; for `Cc1cccc(C)c1N=C1C(=O)Nc2ccccc21`: 31.2 µg/mL (≈ 125 µM). `O=C(NCC1CCCCC1)c1ccc([N+](=O)[O-])cc1`: the solubility (kinetic) was 5.1 µg/mL (≈ 19.4 µM).

For the molecule `CN(Cc1ccccn1)Cc1nc(-c2ccc(Cl)cc2)no1`, the solubility (kinetic) was 35.5 µg/mL (≈ 113 µM). For `S=C(Nc1ccc2c(c1)OCCO2)Nc1ccc2c(c1)OCO2` the value was over 49.6 µg/mL.

In the case of `O=C1Nc2ccccc2C1C(C[N+](=O)[O-])c1ccccc1` (stereo not drawn), the solubility (kinetic) was over 42.3 µg/mL. As to `Cc1cccc(OCCCn2c(=O)oc3ccccc32)c1`, the solubility (kinetic) is 4.6 µg/mL (≈ 16.2 µM). `O=C(CN1CCCC1)NC(=O)NC1CCCC1` came in with a kinetic solubility of over 35.9 µg/mL.

Turning to `Cl.Fc1ccc(CNCc2ccc3c(c2)OCO3)cc1`, the solubility (kinetic) was over 44.4 µg/mL. On to `O=C(Nc1ccccc1F)c1ccc(CN2CCN(c3ccccc3)CC2)cc1`, for which the kinetic solubility was 4.1 µg/mL (≈ 10.5 µM). The molecule `CCc1ccc(S(=O)(=O)N2CCN(c3ncccn3)CC2)cc1` displayed a kinetic solubility of 1.7 µg/mL (≈ 5.11 µM). Consider `CC1(c2ccccc2)CC(c2ccccc2)=Nc2ccccc2N1` (stereo not drawn), for which the solubility (kinetic) came out at 5.8 µg/mL (≈ 18.6 µM). The same measure for `O=C(Cc1ccccc1Cl)Nc1nc2ccccc2[nH]1`: 2.6 µg/mL (≈ 9.1 µM).
